Active and inactive are the calls of the source. The rule behind the calls is not given here.
Test system: CCRIS mutagenicity, Ames/micronucleus/aberration tests
Assay: CCRIS mutagenicity studies
[1] = Test System: AMES SALMONELLA TYPHIMURIUM, Strain/Indicator: TA97, Metabolic Activation: NONE, Method: STANDARD PLATE
[2] = Test System: AMES SALMONELLA TYPHIMURIUM, Strain/Indicator: TA98, Metabolic Activation: NONE, Method: STANDARD PLATE
[3] = Test System: AMES SALMONELLA TYPHIMURIUM, Strain/Indicator: TA100, Metabolic Activation: NONE, Method: STANDARD PLATE

## N#C/C(N)=C(/N)C#N
Test System: AMES SALMONELLA TYPHIMURIUM, Strain/Indicator: TA97, Metabolic Activation: HAMSTER, LIVER, S-9, AROCLOR 1254 (10%), Method: PREINCUBATION
  mutagenic call: inactive; negative
Test System: AMES SALMONELLA TYPHIMURIUM, Strain/Indicator: TA97, Metabolic Activation: HAMSTER, LIVER, S-9, AROCLOR 1254 (30%), Method: PREINCUBATION
  mutagenic call: inactive; negative
Test System: AMES SALMONELLA TYPHIMURIUM, Strain/Indicator: TA97, Metabolic Activation: NONE, Method: PREINCUBATION
  mutagenic call: inactive; negative
Test System: AMES SALMONELLA TYPHIMURIUM, Strain/Indicator: TA97, Metabolic Activation: RAT, LIVER, S-9, AROCLOR 1254 (10%), Method: PREINCUBATION
  mutagenic call: inactive; negative
Test System: AMES SALMONELLA TYPHIMURIUM, Strain/Indicator: TA97, Metabolic Activation: RAT, LIVER, S-9, AROCLOR 1254 (30%), Method: PREINCUBATION
  mutagenic call: inactive; negative
Test System: AMES SALMONELLA TYPHIMURIUM, Strain/Indicator: TA98, Metabolic Activation: HAMSTER, LIVER, S-9, AROCLOR 1254 (10%), Method: PREINCUBATION
  mutagenic call: inactive; negative
Test System: AMES SALMONELLA TYPHIMURIUM, Strain/Indicator: TA98, Metabolic Activation: HAMSTER, LIVER, S-9, AROCLOR 1254 (30%), Method: PREINCUBATION
  mutagenic call: inactive; negative
Test System: AMES SALMONELLA TYPHIMURIUM, Strain/Indicator: TA98, Metabolic Activation: NONE, Method: PREINCUBATION
  mutagenic call: inactive; negative
Test System: AMES SALMONELLA TYPHIMURIUM, Strain/Indicator: TA98, Metabolic Activation: RAT, LIVER, S-9, AROCLOR 1254 (10%), Method: PREINCUBATION
  mutagenic call: inactive; negative
Test System: AMES SALMONELLA TYPHIMURIUM, Strain/Indicator: TA98, Metabolic Activation: RAT, LIVER, S-9, AROCLOR 1254 (30%), Method: PREINCUBATION
  mutagenic call: inactive; negative
Test System: AMES SALMONELLA TYPHIMURIUM, Strain/Indicator: TA100, Metabolic Activation: HAMSTER, LIVER, S-9, AROCLOR 1254 (10%), Method: PREINCUBATION
  mutagenic call: inactive; negative
Test System: AMES SALMONELLA TYPHIMURIUM, Strain/Indicator: TA100, Metabolic Activation: HAMSTER, LIVER, S-9, AROCLOR 1254 (30%), Method: PREINCUBATION
  mutagenic call: inactive; negative
Test System: AMES SALMONELLA TYPHIMURIUM, Strain/Indicator: TA100, Metabolic Activation: NONE, Method: PREINCUBATION
  mutagenic call: inactive; negative
Test System: AMES SALMONELLA TYPHIMURIUM, Strain/Indicator: TA100, Metabolic Activation: RAT, LIVER, S-9, AROCLOR 1254 (10%), Method: PREINCUBATION
  mutagenic call: inactive; negative
Test System: AMES SALMONELLA TYPHIMURIUM, Strain/Indicator: TA100, Metabolic Activation: RAT, LIVER, S-9, AROCLOR 1254 (30%), Method: PREINCUBATION
  mutagenic call: inactive; negative
Test System: AMES SALMONELLA TYPHIMURIUM, Strain/Indicator: TA1535, Metabolic Activation: HAMSTER, LIVER, S-9, AROCLOR 1254 (10%), Method: PREINCUBATION
  mutagenic call: inactive; negative
Test System: AMES SALMONELLA TYPHIMURIUM, Strain/Indicator: TA1535, Metabolic Activation: HAMSTER, LIVER, S-9, AROCLOR 1254 (30%), Method: PREINCUBATION
  mutagenic call: inactive; negative
Test System: AMES SALMONELLA TYPHIMURIUM, Strain/Indicator: TA1535, Metabolic Activation: NONE, Method: PREINCUBATION
  mutagenic call: inactive; negative
Test System: AMES SALMONELLA TYPHIMURIUM, Strain/Indicator: TA1535, Metabolic Activation: RAT, LIVER, S-9, AROCLOR 1254 (10%), Method: PREINCUBATION
  mutagenic call: inactive; negative
Test System: AMES SALMONELLA TYPHIMURIUM, Strain/Indicator: TA1535, Metabolic Activation: RAT, LIVER, S-9, AROCLOR 1254 (30%), Method: PREINCUBATION
  mutagenic call: inactive; negative
Test System: MOUSE LYMPHOMA, Strain/Indicator: L5178Y (TK+/TK-), Metabolic Activation: NONE, Method: SUSPENSION/PLATE
  mutagenic call: active; positive. reevaluation of results: positive
Test System: MOUSE LYMPHOMA, Strain/Indicator: L5178Y (TK+/TK-), Metabolic Activation: RAT, LIVER, S-9, AROCLOR 1254, Method: SUSPENSION/PLATE
  mutagenic call: active; positive. reevaluation of results: positive

## CC1COCc2cc3c(cc21)C(C)(C)C(C)C3(C)C (stereo not given)
[1]
  mutagenic call: inactive; negative
Test System: AMES SALMONELLA TYPHIMURIUM, Strain/Indicator: TA97, Metabolic Activation: RAT LIVER S-9, AROCLOR 1254, Method: STANDARD PLATE
  mutagenic call: inactive; negative
[2]
  mutagenic call: inactive; negative
Test System: AMES SALMONELLA TYPHIMURIUM, Strain/Indicator: TA98, Metabolic Activation: RAT LIVER S-9,AROCLOR 1254, Method: STANDARD PLATE
  mutagenic call: inactive; negative
[3]
  mutagenic call: inactive; negative
Test System: AMES SALMONELLA TYPHIMURIUM, Strain/Indicator: TA100, Metabolic Activation: RAT LIVER S-9, AROCLOR 1254, Method: STANDARD PLATE
  mutagenic call: inactive; negative
Test System: AMES SALMONELLA TYPHIMURIUM, Strain/Indicator: TA102, Metabolic Activation: NONE, Method: STANDARD PLATE
  mutagenic call: inactive; negative
Test System: AMES SALMONELLA TYPHIMURIUM, Strain/Indicator: TA102, Metabolic Activation: RAT LIVER S-9, AROCLOR 1254, Method: STANDARD PLATE
  mutagenic call: inactive; negative
Test System: AMES SALMONELLA TYPHIMURIUM, Strain/Indicator: TA1535, Metabolic Activation: NONE, Method: STANDARD PLATE
  mutagenic call: inactive; negative
Test System: AMES SALMONELLA TYPHIMURIUM, Strain/Indicator: TA1535, Metabolic Activation: RAT LIVER S-9, AROCLOR 1254, Method: STANDARD PLATE
  mutagenic call: inactive; negative
Test System: AMES SALMONELLA TYPHIMURIUM, Strain/Indicator: TA1537, Metabolic Activation: NONE, Method: STANDARD PLATE
  mutagenic call: inactive; negative
Test System: AMES SALMONELLA TYPHIMURIUM, Strain/Indicator: TA1537, Metabolic Activation: RAT LIVER S-9, AROCLOR 1254, Method: STANDARD PLATE
  mutagenic call: inactive; negative
Test System: AMES SALMONELLA TYPHIMURIUM, Strain/Indicator: TA1538, Metabolic Activation: NONE, Method: STANDARD PLATE
  mutagenic call: inactive; negative
Test System: AMES SALMONELLA TYPHIMURIUM, Strain/Indicator: TA1538, Metabolic Activation: RAT LIVER S-9, AROCLOR 1254, Method: STANDARD PLATE
  mutagenic call: inactive; negative
Test System: ESCHERICHIA COLI, Strain/Indicator: WP2 UVR A, Metabolic Activation: NONE, Method: STANDARD PLATE
  mutagenic call: inactive; negative
Test System: ESCHERICHIA COLI, Strain/Indicator: WP2 UVR A, Metabolic Activation: RAT LIVER S-9, AROCLOR 1254, Method: STANDARD PLATE
  mutagenic call: inactive; negative
Test System: UDS RAT HEPATOCYTES, Metabolic Activation: NONE, Method: NET NUCLEAR GRAIN COUNT
  mutagenic call: inactive; negative

## ClCC(Cl)(Cl)Cl
End Point: IN VITRO CHROMOSOMAL ABERRATIONS, Test System: CHINESE HAMSTER LUNG FIBROBLAST CELLS (CHL/IU), Metabolic Activation: RAT, LIVER, S-9, PHENOBARBITAL AND 5,6-BENZOFLAVONE
  mutagenic call: active; positive (ploidy)
End Point: IN VITRO CHROMOSOMAL ABERRATIONS, Test System: CHINESE HAMSTER OVARY CELLS, Metabolic Activation: NONE
  mutagenic call: inactive; negative; precipitation occurred at all doses
End Point: IN VITRO CHROMOSOMAL ABERRATIONS, Test System: CHINESE HAMSTER OVARY CELLS, Metabolic Activation: RAT, LIVER, S-9, AROCLOR 1254
  mutagenic call: inactive; negative; precipitation occurred at all doses
[1]
  mutagenic call: inactive; negative
Test System: AMES SALMONELLA TYPHIMURIUM, Strain/Indicator: TA97, Metabolic Activation: RAT, LIVER, S-9, AROCLOR 1254, Method: STANDARD PLATE
  mutagenic call: active; positive
[2]
  mutagenic call: active; positive
Test System: AMES SALMONELLA TYPHIMURIUM, Strain/Indicator: TA98, Metabolic Activation: RAT, LIVER, S-9, AROCLOR 1254, Method: STANDARD PLATE
  mutagenic call: active; positive
[3]
  mutagenic call: active; positive
Test System: AMES SALMONELLA TYPHIMURIUM, Strain/Indicator: TA100, Metabolic Activation: RAT, LIVER, S-9, AROCLOR 1254, Method: STANDARD PLATE
  mutagenic call: active; positive
Test System: AMES SALMONELLA TYPHIMURIUM, Strain/Indicator: TA104, Metabolic Activation: NONE, Method: STANDARD PLATE
  mutagenic call: inactive; negative
Test System: AMES SALMONELLA TYPHIMURIUM, Strain/Indicator: TA104, Metabolic Activation: RAT, LIVER, S-9, AROCLOR 1254, Method: STANDARD PLATE
  mutagenic call: active; positive

Source: PubChem BioAssay AID1259407 (Chemical Carcinogenesis Research Information System (CCRIS), 2018)
